Columns and labels:
Format in all cases: cell-based
[1] = biological target: T1, Nanoluciferase-BRD9 fusion protein (3×FLAG-NLuc-BRD9) (Homo sapiens, UniProt Q9H8M2); assay: SYO1 BRD9 NanoLuc degradation assay; conditions: SYO-1 cells expressing 3×FLAG-NLuc-BRD9, 6 hours, top dose 1 μM; read-out: SYO1 BRD9-NanoLuc degradation IC50
T1 construct: expressed in transfected cells
T1 sequence (Q9H8M2 1-597): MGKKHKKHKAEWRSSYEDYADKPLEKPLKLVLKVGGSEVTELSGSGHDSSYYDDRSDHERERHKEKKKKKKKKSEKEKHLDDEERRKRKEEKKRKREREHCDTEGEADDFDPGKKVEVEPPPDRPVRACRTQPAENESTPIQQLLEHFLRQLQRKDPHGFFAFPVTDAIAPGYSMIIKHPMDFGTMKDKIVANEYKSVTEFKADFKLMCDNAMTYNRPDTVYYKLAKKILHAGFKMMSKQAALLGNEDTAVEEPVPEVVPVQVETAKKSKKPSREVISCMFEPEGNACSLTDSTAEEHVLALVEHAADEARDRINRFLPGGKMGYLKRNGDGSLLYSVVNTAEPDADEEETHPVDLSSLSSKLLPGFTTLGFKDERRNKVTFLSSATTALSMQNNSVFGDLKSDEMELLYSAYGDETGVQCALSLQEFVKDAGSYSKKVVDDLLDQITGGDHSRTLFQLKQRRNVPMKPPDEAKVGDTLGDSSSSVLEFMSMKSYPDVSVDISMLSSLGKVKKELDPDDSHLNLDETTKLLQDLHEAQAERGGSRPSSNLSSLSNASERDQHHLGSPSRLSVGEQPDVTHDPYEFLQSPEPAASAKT
Protocol: Procedure: A stable SYO-1 cell line expressing 3×FLAG-NLuc-BRD9 was generated. On day 0 cells were seeded in 30 μL media into each well of 384-well cell culture plates. The seeding density was 8000 cells/well. On day 1, cells were treated with 30 nL DMSO or 30 nL of 3-fold serially DMSO-diluted compounds (10 points in duplicates with 1 μM as final top dose). Subsequently plates were incubated for 6 hours in a standard tissue culture incubator and equilibrated at room temperature for 15 minutes. Nanoluciferase activity was measured by adding 15 μL of freshly prepared Nano-Glo Luciferase Assay Reagent (Promega N1130), shaking the plates for 10 minutes and reading the bioluminescence using an EnVision reader.
Results: The Inhibition % was calculated using the following formula: % Inhibition=100×(LumHC−LumSample)/(LumHC−LumLC). DMSO treated cells are employed as High Control (HC) and 1 μM of a known BRD9 degrader standard treated cells are employed as Low Control (LC).

[2] = tested on: non-synovial control cancer cell lines (293T, A549, G401); assay: Cell growth (confluency, crystal violet, colony imaging), non-synovial control lines, Example 2; conditions: 1 μM or indicated concentrations
Protocol: (§1) Cells were treated with DMSO or the BRD9 degrader, Compound 1, at indicated concentrations, and proliferation was monitored from day 7 to day 14 by measuring confluency overtime using an IncuCyte live cell analysis system (FIG. 5). Growth medium and compounds were refreshed every 3-4 days.
(§2) Cells were seeded into 12-well plates and treated with DMSO, 1 μM BRD9 inhibitor, Compound 2 (also known as BI-7273, see Martin et al, J Med Chem. 59(10):4462-4475 (2016); see structure of compound 2 below), or 1 μM BRD9 degrader, Compound 1.
(§3) The number of cells was optimized for each cell line. Growth medium and compounds were refreshed every 3-5 days. SYO1, Yamato, A549, 293T and HS-SY-II cells were fixed and stained at day 11. ASKA cells were fixed and stained at day 23. Staining was done by incubation with crystal violet solution (0.5 g Crystal Violet, 27 ml 37% Formaldehyde, 100 mL 10×PBS, 10 mL Methanol, 863 dH20 to 1 L) for 30 min followed by 3× washes with water and drying the plates for at least 24 h at room temperature. Subsequently plates were scanned on an Odyssey CLx Imaging system (FIG. 6).
(§4) Cells were seeded into 96-well ultra-low cluster plate (Costar, #7007) in 200 μL complete media and treated at day 2 with DMSO, Staurosporin, or BRD9 degrader, Compound 1, at indicated doses (FIG. 3C). Media and compounds were changed every 5 d and cell colonies were imaged at day 14.

[3] = tested on: non-synovial control cancer cell lines (RD, HCT116, and Calu6); assay: Crystal violet cell growth, non-synovial control lines, Example 3; conditions: treated daily, stained by day 14
Protocol: (§5) Procedure: Cells were seeded into 6-well or 12-well plates and were treated daily with a BRD9 degrader (Compound 1), a bromo-domain BRD9 binder (Compound 2), E3 ligase binder (lenalidomide), DMSO, or staurosporin (positive control for cell killing), at indicated concentrations. The number of cells was optimized for each cell line. Growth media was refreshed every 5 days. By day 14, medium was removed, cells were washed with PBS, and stained using 500 μL of 0.005% (w/v) crystal violet solution in 25% (v/v) methanol for at least 1 hour at room temperature. Subsequently plates were scanned on an Odyssey CLx Imaging system.

[4] = tested on: synovial sarcoma cell lines (SYO1, HS-SY-II, and ASKA); assay: Crystal violet cell growth, synovial sarcoma cell lines, Example 3; conditions: for inhibition of the growth of the cells: SYO1, HS-SY-II, ASKA, treated daily, stained by day 14
Protocol: as §5

[5] = tested on: synovial sarcoma cell lines (SYO1, Yamato, HS-SY-II, and ASKA); assay: Cell growth (confluency, crystal violet, colony imaging), synovial sarcoma cell lines, Example 2; conditions: 1 μM or indicated concentrations, day 11 to 23
Protocol: as §1, §2, §3, §4

[6] = tested on: SYO1 cells; assay: Apoptosis assay (Annexin V-FITC); conditions: 200 nM or 1 μM, 8 days, compared to DMSO controls
Protocol: (§6) Procedure: SYO1 cells were treated for 8 or 13 days with DMSO, a BRD9 degrader (Compound 1) at 200 nM or 1 μM, or an E3 ligase binder (lenalidomide) at 200 nM. Compounds were refreshed every 5 days. Cell cycle analysis was performed using the Click-iT™ Plus EdU Flow Cytometry Assay (Invitrogen). The apoptosis assay was performed using the Annexin V-FITC Apoptosis Detection Kit (Sigma A9210). Assays were performed according to the manufacturer's protocol.

[7] = tested on: SYO1 cells; assay: Cell cycle analysis (Click-iT Plus EdU flow cytometry); conditions: 200 nM or 1 μM, 8 or 13 days, compared to DMSO and lenalidomide
Protocol: as §6

| Compound | DC50 [1] | inhibition of the growth of the cells [2] | inhibition of the growth of the cells [3] | inhibition of the growth of the cells [4] | inhibition of the growth of the cells [5] | growth inhibition compared with the other treatments ([4]; all synovial cell lines, vs Compound 2 and lenalidomide) | numbers of early- and late-apoptotic cells [6] | numbers of cells in the S-phase of the cell cycle [7] |
| --- | --- | --- | --- | --- | --- | --- | --- | --- |
| COc1cc(C2=CN(C)C(=O)N(C)C2)cc(OC)c1CN1CCC(CCN2CCN(c3ccc4c(c3)C(=O)N(C3CCC(=O)NC3=O)C4)CC2)CC1 (centres unmarked) [Compound D1, 3-(6-[4-[2-(1-[[4-(1,3-dimethyl-2-oxo-4H-pyrimidin-5-yl)-2,6-dimethoxyphenyl]methyl]piperidin-4-yl)ethyl]piperazin-1-yl]-1-oxo-3H-isoindol-2-yl)piperidine-2,6-dione] | < 10 nM |  |  |  |  |  |  |  |
| COc1cc(-c2cn(C)c(=O)c3cnccc23)cc(OC)c1CN(C)C [Compound 2, BI-7273] |  | does not result in inhibition of the growth | did not result in inhibition of the growth | resulted in inhibition of the growth of the cells | results in inhibition of the growth of the cells |  |  |  |
| COc1cc(C2=CN(C)C(=O)N(C)C2)cc(OC)c1CN1CCN(CCC2CCN(c3ccc4c(c3)CN(C3CCC(=O)NC3=O)C4=O)CC2)CC1 (centres unmarked) [Compound D3, 3-(5-[4-[2-(4-[[4-(1,3-dimethyl-2-oxo-4H-pyrimidin-5-yl)-2,6-dimethoxyphenyl]methyl]piperazin-1-yl)ethyl]piperidin-1-yl]-1-oxo-3H-isoindol-2-yl)piperidine-2,6-dione Formic Acid] | < 10 nM |  |  |  |  |  |  |  |
| COc1cc(C2=CN(C)C(=O)N(C)C2)cc(OC)c1CN1CCC(CCN2CCN(c3ccc4c(c3)CN(C3CCC(=O)NC3=O)C4=O)CC2)CC1 (centres unmarked) [Compound D2, 3-(5-[4-[2-(1-[[4-(1,3-dimethyl-2-oxo-4H-pyrimidin-5-yl)-2,6-dimethoxyphenyl]methyl]piperidin-4-yl)ethyl]piperazin-1-yl]-1-oxo-3H-isoindol-2-yl)piperidine-2,6-dione] | < 10 nM |  |  |  |  |  |  |  |
| COc1cc(-c2cn(C)c(=O)c3cnccc23)cc(OC)c1CN(C)CC(=O)NCCOCCOCCNc1cccc2c1C(=O)N(C1CCC(=O)NC1=O)C2=O (centres unmarked) [Compound 1, dBRD9] |  | does not result in inhibition of the growth | did not result in inhibition of the growth | resulted in inhibition of the growth of the cells | results in inhibition of the growth of the cells | most significant growth inhibition in all synovial cell lines | increased numbers of early- and late-apoptotic cells | reduced numbers of cells in the S-phase of the cell cycle |
